Experiments:
[1] = test system: kochia; test: Test C postemergence; type: in vivo, Kochia scoparia
In short: (§1)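 Seeds were planted in loam soil plus sand and sprayed preemergence. In parallel, potted plants in a peat-based medium were sprayed postemergence at 2 to 18 cm (1- to 4-leaf stage). Compounds were formulated in non-phytotoxic solvent with surfactant.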

[2] = test system: velvetleaf; test: Test A postemergence; type: in vivo, Abutilon theophrasti; conditions: Abutilon theophrasti, post-emergence, 240 h, 0 to 100 scale (0 no effect, 100 complete control), approx. 10 d, read-out: Plant response rating, Velvetleaf
In short: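 Loam/sand soil mix; compound in non-phytotoxic solvent + surfactant. Pre: directed soil spray right after planting seed. Post: potted plants 2–10 cm, 1–2 leaf stage, sprayed with same formulation.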

[3] = test system: ragweed; test: Test C postemergence; type: in vivo, Ambrosia elatior
In short: as §1

[4] = test system: ducksalad; test: Test B flooded paddy test; type: in vivo, Heteranthera limosa; conditions: Heteranthera limosa, 360 h, 125 g ai/ha, applied to paddy water at 2-leaf stage, visual rating after 13 to 15 d, scale 0 (no effect) to 100 (complete control), read-out: Plant response rating, Ducksalad, Flood
In short: (§2)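 Pots were flooded to 3 cm above the soil at treatment, and compounds were applied directly into the paddy water. That depth was held throughout. After 13 to 15 d in a greenhouse, plants were rated visually against untreated controls.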

[5] = test system: blackgrass; test: Test C postemergence; type: in vivo, Alopecurus myosuroides
In short: as §1

[6] = test system: barnyardgrass; test: Test C postemergence; type: in vivo, Echinochloa crus-galli
In short: as §1

[7] = test system: foxtail, giant; test: Test C postemergence; type: in vivo, Setaria faberii
In short: as §1

[8] = test system: oat, wild; test: Test C postemergence; type: in vivo, Avena fatua
In short: as §1

[9] = test system: morningglory; test: Test C postemergence; type: in vivo, Ipomoea coccinea
In short: as §1

[10] = test system: sedge, umbrella; test: Test B flooded paddy test; type: in vivo, Cyperus difformis; conditions: Cyperus difformis, 360 h, 125 g ai/ha, applied to paddy water at 2-leaf stage, visual rating after 13 to 15 d, scale 0 (no effect) to 100 (complete control), read-out: Plant response rating, Sedge, Umbrella, Flood
In short: as §2

[11] = test system: johnsongrass; test: Test C postemergence; type: in vivo, Sorghum halepense
In short: as §1

[12] = test system: barnyardgrass; test: Test B flooded paddy test; type: in vivo, Echinochloa crus-galli; conditions: Echinochloa crus-galli, 360 h, 125 g ai/ha, applied to paddy water at 2-leaf stage, visual rating after 13 to 15 d, scale 0 (no effect) to 100 (complete control), read-out: Plant response rating, Barnyardgrass, Flood
In short: as §2

[13] = test system: crabgrass, large; test: Test C preemergence; type: in vivo, Digitaria sanguinalis; conditions: for Plant response rating (scale of 0 to 100 where 0 is no effect and 100 is complete control): Crabgrass, Large, preemergence; for Crabgrass, Large plant response rating (0 to 100): Preemergence, visual rating after 13 to 15 d
In short: as §1

[14] = test system: chickweed; test: Test C postemergence; type: in vivo, Stellaria media
In short: as §1

With `CCc1nc(-c2ccc(C(F)(F)F)cc2)nn1Cc1ccnc(C(F)(F)F)c1` [Compound 1, 4-[[5-ethyl-3-[4-(trifluoromethyl)phenyl]-1H-1,2,4-triazol-1-yl]methyl]-2-(trifluoromethyl)pyridine] the “Plant response rating (scale of 0 to 100 where 0 is no effect and 100 is complete control)” value ([1]; 31 g ai/ha) was 85, the “Plant response rating (scale of 0 to 100 where 0 is no effect and 100 is complete control)” value ([1]; 62 g ai/ha) was 85 and the “Plant response rating (scale of 0 to 100 where 0 is no effect and 100 is complete control)” value ([1]; 125 g ai/ha) was 90. For the same compound, the “Plant response rating (scale of 0 to 100 where 0 is no effect and 100 is complete control)” value ([1]; 250 g ai/ha) was 90, the pest or weed control at 125 g/ha ([2]; 125 g ai/ha) was 90% and the pest or weed control at 500 g/ha ([2]; 500 g ai/ha) was 100%. The “Plant response rating (scale of 0 to 100 where 0 is no effect and 100 is complete control)” value ([3]; 31 g ai/ha) was 60, the “Plant response rating (scale of 0 to 100 where 0 is no effect and 100 is complete control)” value ([3]; 62 g ai/ha) was 70 and the “Plant response rating (scale of 0 to 100 where 0 is no effect and 100 is complete control)” value ([3]; 125 g ai/ha) was 75. The “Plant response rating (scale of 0 to 100 where 0 is no effect and 100 is complete control)” value ([3]; 250 g ai/ha) was 80, the pest or weed control at 125 g/ha [4] was 20% and the “Plant response rating (scale of 0 to 100 where 0 is no effect and 100 is complete control)” value ([5]; 31 g ai/ha) was 5. For the same compound, the “Plant response rating (scale of 0 to 100 where 0 is no effect and 100 is complete control)” value ([5]; 62 g ai/ha) was 5, the “Plant response rating (scale of 0 to 100 where 0 is no effect and 100 is complete control)” value ([5]; 125 g ai/ha) was 15 and the “Plant response rating (scale of 0 to 100 where 0 is no effect and 100 is complete control)” value ([5]; 250 g ai/ha) was 35. For the same compound, the “Plant response rating (scale of 0 to 100 where 0 is no effect and 100 is complete control)” value ([6]; 31 g ai/ha) was 10, the “Plant response rating (scale of 0 to 100 where 0 is no effect and 100 is complete control)” value ([6]; 62 g ai/ha) was 15 and the “Plant response rating (scale of 0 to 100 where 0 is no effect and 100 is complete control)” value ([6]; 125 g ai/ha) was 15. For the same compound, the “Plant response rating (scale of 0 to 100 where 0 is no effect and 100 is complete control)” value ([6]; 250 g ai/ha) was 50, the “Plant response rating (scale of 0 to 100 where 0 is no effect and 100 is complete control)” value ([7]; 31 g ai/ha) was 35 and the “Plant response rating (scale of 0 to 100 where 0 is no effect and 100 is complete control)” value ([7]; 62 g ai/ha) was 35. For the same compound, the “Plant response rating (scale of 0 to 100 where 0 is no effect and 100 is complete control)” value ([7]; 125 g ai/ha) was 55, the “Plant response rating (scale of 0 to 100 where 0 is no effect and 100 is complete control)” value ([7]; 250 g ai/ha) was 55 and the “Plant response rating (scale of 0 to 100 where 0 is no effect and 100 is complete control)” value ([8]; 31 g ai/ha) was 5. The “Plant response rating (scale of 0 to 100 where 0 is no effect and 100 is complete control)” value ([8]; 62 g ai/ha) was 10, the “Plant response rating (scale of 0 to 100 where 0 is no effect and 100 is complete control)” value ([8]; 125 g ai/ha) was 15 and the “Plant response rating (scale of 0 to 100 where 0 is no effect and 100 is complete control)” value ([8]; 250 g ai/ha) was 25. For the same compound, the “Plant response rating (scale of 0 to 100 where 0 is no effect and 100 is complete control)” value ([9]; 31 g ai/ha) was 60, the “Plant response rating (scale of 0 to 100 where 0 is no effect and 100 is complete control)” value ([9]; 62 g ai/ha) was 70 and the “Plant response rating (scale of 0 to 100 where 0 is no effect and 100 is complete control)” value ([9]; 125 g ai/ha) was 70. The “Plant response rating (scale of 0 to 100 where 0 is no effect and 100 is complete control)” value ([9]; 250 g ai/ha) was 95, the pest or weed control at 125 g/ha [10] was 75% and the “Plant response rating (scale of 0 to 100 where 0 is no effect and 100 is complete control)” value ([11]; 31 g ai/ha) was 10. For the same compound, the “Plant response rating (scale of 0 to 100 where 0 is no effect and 100 is complete control)” value ([11]; 62 g ai/ha) was 10, the “Plant response rating (scale of 0 to 100 where 0 is no effect and 100 is complete control)” value ([11]; 125 g ai/ha) was 15 and the “Plant response rating (scale of 0 to 100 where 0 is no effect and 100 is complete control)” value ([11]; 250 g ai/ha) was 20. For the same compound, the pest or weed control at 125 g/ha [12] was 40%, the “Plant response rating (scale of 0 to 100 where 0 is no effect and 100 is complete control)” value ([13]; 125 g ai/ha) was 100 and the “Plant response rating (scale of 0 to 100 where 0 is no effect and 100 is complete control)” value ([13]; 250 g ai/ha) was 100. The “Crabgrass, Large plant response rating (0 to 100)” value ([13]; 31 g ai/ha) was 98, the “Crabgrass, Large plant response rating (0 to 100)” value ([13]; 62 g ai/ha) was 100 and the “Plant response rating (scale of 0 to 100 where 0 is no effect and 100 is complete control)” value ([14]; 31 g ai/ha) was 60. The “Plant response rating (scale of 0 to 100 where 0 is no effect and 100 is complete control)” value ([14]; 62 g ai/ha) was 85, the “Plant response rating (scale of 0 to 100 where 0 is no effect and 100 is complete control)” value ([14]; 125 g ai/ha) was 85 and the “Plant response rating (scale of 0 to 100 where 0 is no effect and 100 is complete control)” value ([14]; 250 g ai/ha) was 95.

From patent US10681909B2, “Herbicidal triazoles” (FMC Corporation, priority 2014, dated 2020)
